In US8431565B2 (priority 2007, dated 2013):
pEC50: −log10 of the molar value.

What was measured:
rat CB2 receptor (rCB2) = biological target: T1, rat CB2 receptor (rCB2) (Rattus norvegicus, UniProt Q9QZN9)
T1 sequence (Q9QZN9 1-360): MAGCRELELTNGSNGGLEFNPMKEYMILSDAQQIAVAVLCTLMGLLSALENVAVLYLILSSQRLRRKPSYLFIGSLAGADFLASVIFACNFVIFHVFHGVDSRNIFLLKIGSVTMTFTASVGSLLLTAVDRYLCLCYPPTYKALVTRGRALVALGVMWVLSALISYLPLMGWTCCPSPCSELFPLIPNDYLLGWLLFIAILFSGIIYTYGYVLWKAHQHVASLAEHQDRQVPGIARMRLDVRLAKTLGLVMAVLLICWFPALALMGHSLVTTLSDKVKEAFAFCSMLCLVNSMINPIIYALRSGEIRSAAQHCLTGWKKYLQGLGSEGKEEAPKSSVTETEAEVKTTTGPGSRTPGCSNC

[1] = biological target: human CB1 receptor (hCB1) (Homo sapiens, UniProt P21554); assay type: cell-based
human CB1 receptor (hCB1), sequence (P21554 whole entry): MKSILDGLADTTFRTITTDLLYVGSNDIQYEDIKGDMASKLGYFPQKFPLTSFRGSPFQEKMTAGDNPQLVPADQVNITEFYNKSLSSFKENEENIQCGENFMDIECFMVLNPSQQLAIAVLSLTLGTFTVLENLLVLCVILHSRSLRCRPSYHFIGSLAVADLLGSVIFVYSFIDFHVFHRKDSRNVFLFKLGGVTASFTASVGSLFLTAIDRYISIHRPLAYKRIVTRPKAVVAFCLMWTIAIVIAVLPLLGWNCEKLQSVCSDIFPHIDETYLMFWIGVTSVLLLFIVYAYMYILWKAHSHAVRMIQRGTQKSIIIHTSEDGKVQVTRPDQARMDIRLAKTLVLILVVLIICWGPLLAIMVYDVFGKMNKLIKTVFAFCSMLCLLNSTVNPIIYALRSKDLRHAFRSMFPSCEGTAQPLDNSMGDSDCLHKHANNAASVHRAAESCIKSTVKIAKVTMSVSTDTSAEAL

rats [2] = assay: Spinal nerve ligation (SNL) model of neuropathic pain; assay type: in vivo; details: rat; oral 3, 10 and 30 mg/kg; FIG. 4
Procedure: The SNL model (Kim and Chung 1992) was used to induce chronic neuropathic pain in rats. The rats were anesthetized with isoflurane, the left L5 transverse process was removed, and the L5 and L6 spinal nerves were tightly ligated with 6-0 silk suture. The wound was then closed with internal sutures and external staples. Following at least seven days post SNL, baseline, post-injury and post-treatment values for non-noxious mechanical sensitivity were evaluated using eight Semmes-Weinstein filaments (Stoelting, Wood Dale, Ill., USA) with varying stiffness (0.4, 0.7, 1.2, 2.0, 3.6, 5.5, 8.5, and 15 g) according to the up-down method (Chaplan et al. 1994). Animals were placed on a perforated metallic platform and allowed to acclimate to their surroundings for a minimum of thirty minutes before testing. The mean and standard error of the mean (SEM) were determined for the injured paw in each treatment group. Since this stimulus is normally not considered painful, significant injury-induced increases in responsiveness in this test are interpreted as a measure of mechanical allodynia. The dose which elicited 50% attenuation of mechanical hypersensitivity (ED50) was determined using linear regression analysis. Results obtained after oral administration of compound 317 at 3, 10 and 30 mg/kg and with compound 366 at 1, 3 and 10 mg/kg are shown in FIG. 4.

rats [3] = assay: Carrageenan model of acute inflammation; assay type: in vivo; details: rat
Male ICR mice = assay: Inhibition of acetic acid-induced writhing; assay type: in vivo, mouse; details: subcutaneous 3, 10 and 30 mg/kg, FIG. 2
Excerpt: 12: 525-562; Ramabadran and Bansinath (1986) Pharm. Res. 3: 263-270]. Intraperitoneal administration of dilute acetic acid solution causes a writhing behavior in mice. A writhe is defined as a contraction of the abdominal muscles accompanied by an extension of the forelimbs and elongation of the body. The number of writhes observed in the presence and absence of test compounds is counted to determine the analgesic activity of the compounds.
Male ICR mice, 20-40 grams in weight, were weighed and placed in individual observation chambers (usually a 4000 ml beaker) with a fine layer of rodent bedding at the bottom. To determine the activity and potency of test compounds, different doses of the compound solution or vehicle were injected subcutaneously in the back of the neck 30 minutes prior to administration of acetic acid solution. After administration of the compound or vehicle control, mice were returned to their individual observation chambers awaiting the intraperitoneal administration of acetic acid solution. Thirty minutes later, 10 ml/kg of a 0.6% (v/v) acetic acid solution was then injected into the right lower quadrant of the abdomen. […] The number of writhes was counted over a 15-min period starting from the time of acetic acid injection. Raw data were analyzed using a one-way ANOVA followed by Dunnett's post-tests. […]

Male Sprague-Dawley rats = assay: Complete Freund's Adjuvant (CFA) model of inflammatory pain, Randall-Selitto paw pressure; assay type: in vivo; details: rat, intraperitoneal
Procedure: Male Sprague-Dawley rats (Hsd:Sprague-Dawley®™ SD®™, Harlan, Indianapolis, Ind.) weighing 201±1 grams, were housed three per cage. Animals had free access to food and water and were maintained on a twelve hour light/dark schedule for the entire duration of the experiment. Approximately 12 hours prior to behavioral testing, animals were placed on wire mesh bottom cages with free access to water but no access to food. Test compounds were prepared in 50% PEG-400 (Sigma-Aldrich, cat. P3265). Indomethacin (Fluka, cat 57413) was suspended in 0.5% methylcellulose (Sigma-Aldrich, cat. 274429). Groups of eight animals were anesthetized with 2-3% isoflurane and local inflammation induced by 50 μl CFA (Sigma-Aldrich, cat F5881, Mycobacterium tuberculosis 1 mg/ml) injected subcutaneously into the plantar surface of the left paw.
Assessment of mechanical hyperalgesia: Baseline and post-treatment withdrawal thresholds to a noxious mechanical stimulus were measured using the Randall-Selitto paw pressure apparatus (Ugo Basile Analgesymeter, model 7200). […] Mechanical hyperalgesia was measured using the Randall-Selitto paw pressure device before CFA injection and after intraperitoneal (i.p.) compound administration over a twenty-four-hour period. The mean and standard error of the mean (SEM) were determined for the injured and normal paws for each treatment group.

CNC(=O)[C@@H](NC(=O)c1nc(-c2ccc3c(c2)OCCO3)n2c1CN(C)CCC2)C(C)(C)C [Compound 326, (S)-3-(2,3-dihydrobenzo[b][1,4]dioxin-6-yl)-N-(3,3-dimethyl-1-(methylamino)-1-oxobutan-2-yl)-8-methyl-6,7,8,9-tetrahydro-5H-imidazo[1,5-a][1,4]diazepine-1-carboxamide]
pEC50 (rat CB2 receptor (rCB2)): 7.00 to 8.00 | pEC50 [1]: < 5.00

CNC(=O)[C@@H](NC(=O)c1nc(-c2ccc(Cl)cc2F)n2c1CN(C)CCC2)C(C)(C)C [Compound 366, (S)-3-(4-chloro-2-fluorophenyl)-N-(3,3-dimethyl-1-(methylamino)-1-oxobutan-2-yl)-8-methyl-6,7,8,9-tetrahydro-5H-imidazo[1,5-a][1,4]diazepine-1-carboxamide]
response in the neuropathic pain model (rats [2]): dose response in the neuropathic pain model | inhibition of carrageenan-induced hyper-sensitivity (rats [3]; oral 1, 3 and 10 mg/kg, FIG. 3B): dose response in the inhibition of carrageenan-induced hyper-sensitivity | inhibition of acetic acid-induced writhing (Male ICR mice): dose response in the inhibition of acetic acid-induced writhing

CCS(=O)(=O)N1CCn2c(-c3ccccc3)nc(C(=O)N[C@H](C(=O)NC)C(C)(C)C)c2C1 [Compound 91, (S)—N-(3,3-dimethyl-1-(methylamino)-1-oxobutan-2-yl)-7-(ethylsulfonyl)-3-phenyl-5,6,7,8-tetrahydroimidazo[1,5-a]pyrazine-1-carboxamide]
pEC50 (rat CB2 receptor (rCB2)): 7.00 to 8.00 | side effects during the experiment (Male Sprague-Dawley rats; CFA experiment): No side effects were observed | effect on paw withdrawal threshold after intrapaw CFA (Male Sprague-Dawley rats; vs vehicle over twenty-four hours, FIG. 1): anti-hyperalgesic effect

CNC(=O)[C@@H](NC(=O)c1nc(-c2ccccc2)n2c1CN(C)CCC2)C(C)(C)C [Compound 317, (S)—N-(3,3-dimethyl-1-(methylamino)-1-oxobutan-2-yl)-8-methyl-3-phenyl-6,7,8,9-tetrahydro-5H-imidazo[1,5-a][1,4]diazepine-1-carboxamide]
response in the neuropathic pain model (rats [2]): dose response in the neuropathic pain model | inhibition of carrageenan-induced hyper-sensitivity (rats [3]; sub-cutaneous 3, 10 and 30 mg/kg, FIG. 3A): dose response in the inhibition of carrageenan-induced hyper-sensitivity | inhibition of acetic acid-induced writhing (Male ICR mice): dose response in the inhibition of acetic acid-induced writhing

CN1CCn2c(-c3ccc(Cl)cc3F)nc(C(=O)N3CCC4(CCNC4=O)CC3)c2C1 [Compound 220, 8-(3-(4-chloro-2-fluorophenyl)-7-methyl-5,6,7,8-tetrahydroimidazo[1,5-a]pyrazine-1-carbonyl)-2,8-diazaspiro[4.5]decan-1-one]
pEC50 (rat CB2 receptor (rCB2)): < 5.00 | pEC50 [1]: < 5.00

CNC(=O)[C@@H](NC(=O)c1nc(-c2cccc3c2OC(F)(F)O3)n2c1CN(C)CCC2)C(C)(C)C [Compound 682, (S)-3-(2,2-difluorobenzo[d][1,3]dioxol-4-yl)-N-(3,3-dimethyl-1-(methylamino)-1-oxobutan-2-yl)-8-methyl-6,7,8,9-tetrahydro-5H-imidazo[1,5-a][1,4]diazepine-1-carboxamide]
pEC50 [1]: < 5.00

CNC(=O)[C@@H]1CCN(C(=O)c2nc(-c3cc(F)c(F)cc3F)n3c2CN(C)CCC3)C1 [Compound 758, (R)-N-methyl-1-(8-methyl-3-(2,4,5-trifluorophenyl)-6,7,8,9-tetrahydro-5H-imidazo[1,5-a][1,4]diazepine-1-carbonyl)pyrrolidine-3-carboxamide]
pEC50 [1]: < 5.00

CC(C)(C)[C@H](NC(=O)c1nc(-c2ccccc2)n2c1CNCC2)C(=O)NCCF [Compound 731, (S)-N-(1-(2-fluoroethylamino)-3,3-dimethyl-1-oxobutan-2-yl)-3-phenyl-5,6,7,8-tetrahydroimidazo[1,5-a]pyrazine-1-carboxamide]
pEC50 [1]: < 5.00

CNC(=O)[C@@H](NC(=O)c1nc(-c2cnccc2Cl)n2c1CN(C)CCC2)C(C)(C)C [Compound 627, (S)-3-(4-chloropyridin-3-yl)-N-(3,3-dimethyl-1-(methylamino)-1-oxobutan-2-yl)-8-methyl-6,7,8,9-tetrahydro-5H-imidazo[1,5-a][1,4]diazepine-1-carboxamide]
pEC50 [1]: < 5.00

CN1CCCn2c(-c3cc(F)c(F)cc3F)nc(C(=O)N3CCOCC3)c2C1 [Compound 859, (8-methyl-3-(2,4,5-trifluorophenyl)-6,7,8,9-tetrahydro-5H-imidazo[1,5-a][1,4]diazepin-1-yl)(morpholino)methanone]
pEC50 [1]: < 5.00

CNC(=O)[C@@H](NC(=O)c1nc(-c2cccnc2C)n2c1CN(C)CCC2)C(C)(C)C [Compound 640, (S)-N-(3,3-dimethyl-1-(methylamino)-1-oxobutan-2-yl)-8-methyl-3-(2-methylpyridin-3-yl)-6,7,8,9-tetrahydro-5H-imidazo[1,5-a][1,4]diazepine-1-carboxamide]
pEC50 [1]: < 5.00
